This is an account of results in patent US4468469A, “Substituted phenylacetic acids and salts as TBP blocking agents in iodothyronine immunoassays” (Miles Laboratories, Inc., priority 1982, dated 1984).

This experiment concerns the target apoglucose oxidase (Aspergillus niger, UniProt P13006). Briefly: Activation of apoglucose oxidase by FAD-theophylline conjugate (fenclofenac). It is filed as biochemical. Conditions: 5 min, 37° C., read-out: Percent Apoglucose Oxidase Activity. The method, then: A series of apoenzyme reactivation measurements were set up with different concentrations of fenclofenac. The assays were performed at 37° C. and the final reagent concentrations in 0.1M phosphate buffer, pH 7.0, were 1.0 nanomolar (nM) FAD-labeled conjugate (an FAD-theophylline conjugate as described in U.S. Pat. No. 4,238,565), 50 nM apoglucose oxidase (U.S. Pat. No. 4,268,631), 2.5 μl/ml anti(glucose oxidase) antiserum, 2 mM sodium dichlorohydroxybenzene sulfonate (DHSA), 0.2 mM 4-aminoantipyrine, 0.1M glucose, 20 μg/ml peroxidase, and 0.1% (w/v) bovine serum albumin. The apoenzyme and anti(glucose oxidase) were preincubated and the reaction then started by simultaneously mixing in the other reagents. The reaction mixtures were incubated for 5 minutes and then absorbance at 520 nm read. The results shown in Table 4 relate fenclofenac concentration to the generation of active glucose oxidase.

Sequence of apoglucose oxidase (P13006 17-605): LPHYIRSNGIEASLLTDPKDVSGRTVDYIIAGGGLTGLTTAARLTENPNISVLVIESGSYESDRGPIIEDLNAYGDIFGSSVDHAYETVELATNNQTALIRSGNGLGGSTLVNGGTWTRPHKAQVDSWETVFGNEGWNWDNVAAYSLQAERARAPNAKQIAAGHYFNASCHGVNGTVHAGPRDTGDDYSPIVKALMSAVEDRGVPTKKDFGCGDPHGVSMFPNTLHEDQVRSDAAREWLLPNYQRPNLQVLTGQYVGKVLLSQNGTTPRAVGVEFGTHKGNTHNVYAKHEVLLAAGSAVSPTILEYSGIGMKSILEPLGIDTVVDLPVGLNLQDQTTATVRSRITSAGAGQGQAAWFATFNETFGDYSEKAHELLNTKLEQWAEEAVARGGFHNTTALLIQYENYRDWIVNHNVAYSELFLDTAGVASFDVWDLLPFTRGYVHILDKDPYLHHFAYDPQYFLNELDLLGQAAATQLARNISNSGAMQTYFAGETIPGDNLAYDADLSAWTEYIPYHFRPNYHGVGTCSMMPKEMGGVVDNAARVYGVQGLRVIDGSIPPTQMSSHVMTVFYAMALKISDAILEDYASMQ

For the molecule `O=C(O)Cc1ccccc1Oc1ccc(Cl)cc1Cl` [Fenclofenac, 2-(2,4-dichlorophenoxy)phenylacetic acid], the activity at 500 µM (pH 7, 0.5 mM fenclofenac) amounted to 81%. Further, the activity at 1000 µM (pH 7, 1.0 mM fenclofenac) came out at 66%. For the setting “pH 7, 1.5 mM fenclofenac”, the activity at 1500 µM was found to be 61%. Further, the activity at 2000 µM (pH 7, 2.0 mM fenclofenac) came out at 64%. Further, the activity at 2500 µM (pH 7, 2.5 mM fenclofenac) was 47%.
